The values below come from publication PMC10940605, “Design, synthesis and in vitro anticancer activity of some new lomefloxacin derivatives” (Scientific Reports, 2024).

What is called inhibition is the change of the read-out against control, counted positive when it falls. The LC50 is the concentration lethal to half of the exposed cells or organisms. As a reminder, the GI50 is the concentration that inhibits growth by half.

Assay type in all cases: cell-based
One assay deals with MOLT-4. Briefly: NCI-60 SRB screen. Particulars: Homo sapiens; MOLT-4, 10^–5 Molar; read-out: Percent growth inhibition.
A further assay deals with A498. Briefly: NCI-60 SRB screen. Particulars: Homo sapiens; A498, 10^–5 Molar; read-out: Percent growth inhibition. In outline: (§1)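 Testing used one 10^−5 M dose. Plates were incubated 48 h at 37 °C in 5% CO2 before fixation, staining with 0.4% (w/v) SRB in 1% acetic acid, solubilisation in trizma base and reading at […].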
The next assay concerns BT-549. Briefly: NCI-60 SRB screen. The settings on record: Homo sapiens; BT-549, 10^–5 Molar; read-out: Percent growth inhibition. In short, it runs like this:
(§2)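 Compounds were evaluated at one concentration (10^−5 M) against the cell lines over 48 h. Cell mass was measured by sulforhodamine B staining after trichloroacetic acid fixation, with growth expressed relative to time-zero and control cultures.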

For the next assay, the system named is HCC-2998. The assay can be described thus: NCI-60 SRB screen. Particulars: Homo sapiens; HCC-2998, 10^–5 Molar; read-out: Percent growth inhibition. In short, it runs like this:
as §2

In the next assay the test system is HCT-116. The assay can be described thus: NCI-60 SRB screen. Particulars: Homo sapiens; HCT-116, 10^–5 Molar; read-out: Percent growth inhibition. In outline:
as §2

The test system of a further assay is HCT-15. The assay can be described thus: NCI-60 SRB screen. Particulars: Homo sapiens; HCT-15, 10^–5 Molar; read-out: Percent growth inhibition. In short, it runs like this: as §2
The next assay relates to HOP-62. The assay can be described thus: NCI-60 SRB screen. The settings on record: Homo sapiens; HOP-62, 10^–5 Molar; read-out: Percent growth inhibition. In short, it runs like this: as §2
Another assay concerns HOP-92. The assay can be described thus: NCI-60 SRB screen. The settings on record: Homo sapiens; HOP-92, 10^–5 Molar; read-out: Percent growth inhibition. In outline:
as §2

The test system of another assay is M14. Briefly: NCI-60 SRB screen. The settings on record: Homo sapiens; M14, 10^–5 Molar; read-out: Percent growth inhibition. In outline: as §2
The test system of another assay is MDA-MB-231/ATCC. The assay can be described thus: NCI-60 SRB screen. The settings on record: Homo sapiens, 10^–5 Molar, read-out: Percent growth inhibition. In short, it runs like this: as §1
In the next assay the test system is MDA-MB-468. Briefly: NCI-60 SRB screen. Particulars: Homo sapiens; MDA-MB-468, 10^–5 Molar; read-out: Percent growth inhibition. In outline:
as §2

For another assay, the system named is NCI-H460. Briefly: NCI-60 SRB screen. The settings on record: Homo sapiens; NCI-H460, 10^–5 Molar; read-out: Percent growth inhibition. In short, it runs like this:
as §2

The test system of a further assay is NCI-H522. Briefly: NCI-60 SRB screen. The settings on record: Homo sapiens; NCI-H522, 10^–5 Molar; read-out: Percent growth inhibition. In short, it runs like this: as §2
A further assay deals with OVCAR-5. Briefly: NCI-60 SRB screen. The settings on record: Homo sapiens; OVCAR-5, 10^–5 Molar; read-out: Percent growth inhibition. In short, it runs like this: as §1
A further assay concerns RXF 393. The assay can be described thus: NCI-60 SRB screen. Particulars: Homo sapiens, 48 h; RXF 393, 10^–5 Molar; read-out: Percent growth inhibition. In short, it runs like this:
as §2

The subject of the next assay is SF-295. The assay can be described thus: NCI-60 SRB screen. Particulars: Homo sapiens; SF-295, 10^–5 Molar; read-out: Percent growth inhibition. In outline: as §1
The subject of the next assay is U251. Briefly: NCI-60 SRB screen. The settings on record: Homo sapiens, U-251; U251, 10^–5 Molar; read-out: Percent growth inhibition. In short, it runs like this: as §2
The test system of the next assay is UACC-62. Briefly: NCI-60 SRB screen. Particulars: Homo sapiens; UACC-62, 10^–5 Molar; read-out: Percent growth inhibition. In short, it runs like this:
as §1

In the next assay the test system is leukemia SR. Briefly: NCI-60 SRB screen. The settings on record: Homo sapiens; SR, 10^–5 Molar; read-out: Percent growth inhibition. In short, it runs like this: as §2
The test system of assay [1] is 60 human cancer cell lines. The assay can be described thus: NCI-60 SRB screen, whole panel. The settings on record: for activity at 10 µM / LC50 / GI50 / inhibition at 10 µM: Homo sapiens; for activity at 10 µM: 48 h, One Dose Mean Graph, Conc 1.00E-5 Molar, read-out: Mean Growth Percent; for LC50 / Log10 TGI _MID: mean over panel, Units Molar; for LC50: read-out: Log10 LC50 _MID (converted); for GI50: mean over the cell line panel (_MID), Molar, read-out: Mean Log10 GI50 (converted); for inhibition at 10 µM: single dose 10^–5 M, 60 cell lines, read-out: mean percent growth inhibition.

`CCn1cc(C(=O)NN=Cc2ccccc2)c(=O)c2cc(F)c(N3CCNC(C)C3)c(F)c21` (centres unmarked) [Compound 3a, N'-Benzylidene-1-ethyl-6,8-difluoro-7-(3-methylpiperazin-1-yl)-4-oxo-1,4-dihydroquinoline-3-carbohydrazide]: the inhibition at 10 µM was determined as 125% in the assay on MOLT-4; 0.4% with A498; 22.2% in the assay on BT-549; 183% in the assay on HCC-2998; 42.5% with HCT-116; 186% in the assay with HCT-15. For the same molecule, the inhibition at 10 µM in the assay on HOP-62 is 31.4%; in the assay on HOP-92, 44.2%; with M14, 150%; in the assay on MDA-MB-231/ATCC, 170%; with MDA-MB-468, 69.6%; in the assay with NCI-H460, 173%. Further, the inhibition at 10 µM in the assay on NCI-H522 was found to be 175%; in the assay with OVCAR-5 it was 33%; in the assay with RXF 393, 161%; with SF-295, 91.1%; in the assay on U251, 192%; in the assay with UACC-62 it was 128%. For the same molecule, the inhibition at 10 µM in the assay with leukemia SR was 115%; in assay [1], above 47%. The activity at 10 µM in [1] was -2.19%. In assay [1], the LC50 is 5.89 µM. For the same molecule, the GI50 in assay [1] is 1700 nM. Also, the “Log10 TGI _MID” value in assay [1] is reported as -5.49.

Regarding `CCn1cc(C(=O)NN=Cc2cccc(F)c2)c(=O)c2cc(F)c(N3CCNC(C)C3)c(F)c21` (centres unmarked) [Compound 3b, 1-Ethyl-6,8-difluoro-N′-(3-fluorobenzylidene)-7-(3-methylpiperazin-1-yl)-4-oxo-1,4-dihydroquinoline-3-carbohydrazide], the inhibition at 10 µM with MOLT-4 was found to be 126%; in the assay on A498, 0.84%; in the assay with BT-549, 17.1%; with HCC-2998 it was 181%; in the assay with HCT-116, 28.8%; with HCT-15 it was 182%. For the same molecule, the inhibition at 10 µM with HOP-62 was determined as 13.5%; in the assay with HOP-92, 48.8%; in the assay on M14, 107%; in the assay on MDA-MB-231/ATCC, 150%; in the assay on MDA-MB-468 it was 28.4%; in the assay on NCI-H460, 179%. Also, the inhibition at 10 µM with NCI-H522 stood at 130%; with OVCAR-5 it was 9.76%; in the assay with RXF 393, 122%; with SF-295, 24.3%; in the assay on U251, 174%; in the assay with UACC-62, 35.2%. For the same molecule, the figures for the inhibition at 10 µM (with leukemia SR; in assay [1]) were 129% and above 47%, respectively. Further, in assay [1], the activity at 10 µM was found to be 11.2%. Also, the LC50 in [1] was 6.61 µM. Moreover, the GI50 in assay [1] is 1700 nM. Moreover, in assay [1], the “Log10 TGI _MID” value is -5.47.

Turning to `CCn1cc(C(=O)NN=Cc2ccc(Br)cc2)c(=O)c2cc(F)c(N3CCNC(C)C3)c(F)c21` (centres unmarked) [Compound 3c, N'-(4-Bromobenzylidene)-1-ethyl-6,8-difluoro-7-(3-methylpiperazin-1-yl)-4-oxo-1,4-dihydroquinoline-3-carbohydrazide], the inhibition at 10 µM in the assay with MOLT-4 came out at 78%; with A498, 1.99%; with BT-549, 8.32%; in the assay on HCC-2998 it was 74.1%; in the assay on HCT-116 it was 32.3%; with HCT-15, 119%. Further, the inhibition at 10 µM turned out to be 11.2% in the assay on HOP-62; 38.8% with HOP-92; 57.3% with M14; 45.2% with MDA-MB-231/ATCC; 17.5% with MDA-MB-468; 151% in the assay on NCI-H460. The inhibition at 10 µM with NCI-H522 is 21.5%; in the assay with OVCAR-5, 5.97%; in the assay on RXF 393, 38.8%; with SF-295, 25.5%; in the assay on U251 it was 98.6%; with leukemia SR, 95.7%. Also, the inhibition at 10 µM in assay [1] is above 47%. Also, the activity at 10 µM in [1] is 51.9%. Also, in [1], the LC50 is 7.24 µM. Further, the GI50 in assay [1] is 1740 nM. The “Log10 TGI _MID” value in [1] is reported as -5.46.
